The subject of assay [1] is L929 cell line (mouse fibroblastoma cell line). In words: L929 cell viability assay (mTNF-α + Z-VAD-FMK induced necroptosis). The assay is classed as cell-based. The conditions noted are these: Mus musculus, L929, 20 h, L929 cells, mTNF-α 0.1 μg/mL + Z-VAD-FMK 5 μM, CellTiter-Glo. The procedure:
L929 cell line (mouse fibroblastoma cell line): purchased from ATCC (American Type Culture Collection) Cell Bank, cultured in 5% CO2, 37° C. incubator, and MEM medium which contains L-Glutamine, with 10% FBS was used. • MEM medium: GIBCO, Cat #11095080; • Fetal bovine serum (FBS): GIBCO, Cat #10099-141C; • Dimethyl sulfoxide (DMSO): Sigma, Cat #D2650; • 0.25% Trypsin-EDTA: GIBCO, Cat #25200072; • Recombinant Mouse TNF-alpha Protein (mTNF-α): R&D system, Cat #410-MT-050; • Pan-Caspase inhibitor (Z-VAD-FMK): Selleckchem, Cat #S7023; • CellTiter-Glo 2.0 Cell Viability Assay kit: Promega, Cat #G9242; • Microwell plate reader: Envision, Perkin Elmer; • 96-well plate: Corning, Cat #3917.
The L929 cells at the logarithmic phase were taken out, and the supernatant was discarded. After trypsinization and cell shedding, 10% FBS-containing medium was added for neutralization, and the supernatant was discarded after centrifugation. The cells were re-suspended using 10% FBS-containing medium, adjusted to 7×10^4 cells/ml, added to 96-well microplate at 70 μL/well, i.e., 4.9×10^3 cells/well. Then the plate was incubated in a 5% CO2, 37° C. cell incubator overnight.
After incubating overnight, the 96-well plate was taken out, the medium was discarded, and the plate was washed with 1% FBS-containing MEM medium. Then 1% FBS-containing MEM medium was added at 70 μL/well, and the plate was cultured in a 5% CO2, 37° C. cell incubator. After incubating for 1 hour, the test compound was diluted to the corresponding concentrations using DMSO with 3-fold serial dilution, then the corresponding concentration of DMSO diluted solution was diluted into 1% FBS-containing MEM medium, and 10 μL/well of the diluted test compound with different concentrations (final concentrations of test compound were 10, 3.33, 1.11, 0.37, 0.12, 0.04, 0.014 and 0.005 μM, while final concentration of DMSO was 0.3%) or 10 μL/well control solution (3% DMSO) were added to the cell culture system respectively, with the total volume being 80 μL/well. Then 10 μL of Z-VAD-FMK solution diluted with 1% FBS-containing MEM medium (final concentration of 5 μM) or 10 μL of control solution (2.5% DMSO) was added to each well, with the total volume being 90 μL/well. The plate was incubated in a 5% CO2, 37° C. cell culture incubator for 1 hour.
After incubating for 1 hour, 10 μL of recombinant mouse TNF-α protein solution diluted with 1% FBS-containing MEM medium (final concentration of 0.1 μg/mL) or 10 μL control solution (1% FBS-containing MEM medium) was added to each well. The plate was incubated in a 5% CO2, 37° C. cell culture incubator for 20 hours.
(§1) The cell culture plate was taken out from the incubator, and left to stand at room temperature for 30 minutes. Meanwhile, CellTiter-Glo viability assay kit was put from freezer to room temperature, and 50 μL of CellTiter-Glo reagent was added to all wells, the plate was shaken for 1 minutes, protected from light at room temperature for 10 minutes then read the plate on Envision to get the luminescence signal.
(§2) The 96-well plate in the dark was taken out, and the chemiluminescence was determined using the Envision microwell plate reader as the signal value of each well.
The mean signal value of the wells of the mixed solution of recombinant mouse TNF-alpha protein (final concentration of 0.1 μg/mL) and Pan-Caspase inhibitor (final concentration of 5 μM) was used as the lower value, and the mean signal value of the wells without stimulation was used as the upper value. According to the signal value of each well, the inhibition rate of each concentration of every compound was calculated, and the IC50 value of compound was obtained by Model 205 in XL-Fit 5.3 software (ID Business Solutions Limited).
(§3) Inhibition rate %=[(Luminescence readout of treated compound−Luminescence readout of positive control)/(Luminescence readout of negative control−Luminescence readout of positive control)]×100%, wherein
(In general: In ATP-based viability assays light output follows the ATP content of the culture.)

Assay [2] has as its system U937 cell line (human histiocytic lymphoma cell line). In words: U937 cell viability assay (TNF-α + Z-VAD-FMK induced necroptosis). The assay is classed as cell-based. The settings on record: Homo sapiens, U-937; U937 cells, hTNF-α 0.1 μg/mL + Z-VAD-FMK 50 μM, 20 hours, CellTiter-Glo. On the procedure:
U937 cell line (human histiocytic lymphoma cell line): purchased from ATCC (American Type Culture Collection) Cell Bank, cultured in a 5% CO2, 37° C. incubator, and RPMI 1640 medium which contains L-glutamine, 1.5 g/L sodium bicarbonate, 2.383 g/L HEPES solution, 0.11 g/L sodium pyruvate and 4.5 g/L glucose, plus 10% fetal bovine serum (FBS) was used. • RPMI 1640 medium: GIBCO, Cat #A10491-01; • Fetal bovine serum (FBS): GIBCO, Cat #10099-141C; • Dimethyl sulfoxide (DMSO): Sigma, Cat #D2650; • Recombinant Human TNF-alpha Protein (hTNF-α): R&D system, Cat #210-TA-100; • Pan-Caspase inhibitor (Z-VAD-FMK): Selleckchem, Cat #S7023; • CellTiter-Glo 2.0 Cell Viability Assay kit: Promega, Cat #G9242; • Microwell plate reader: Envision, Perkin Elmer; • 96-well plate: Corning, Cat #3917.
The U937 cells at the logarithmic phase were taken out, centrifuged to remove the medium, washed with PRMI 1640 medium containing 1% FBS, and diluted with 1% FBS-containing RPMI 1640 medium to 2.5×10^5 cells/ml, inoculated at 70 μL/well into a 96-well plate, i.e., 1.75×10^4 cells/well. The plate was cultured in a 5% CO2, 37° C. cell incubator. After incubating for 1 hour, the test compound was diluted to the corresponding concentrations using DMSO with 3-fold serial dilution, then the corresponding concentration of DMSO diluted solution was diluted into 1% FBS-containing RPMI 1640 medium, and 10 μL/well of the diluted test compound with different concentrations (final concentration of test compound was 1.0, 0.333, 0.111, 0.037, 0.012, 0.004, 0.0014 and 0.0005 μM, while final concentration of DMSO was 0.3%) or 10 μL/well control solution (3% DMSO) were added to the cell culture system respectively, with the total volume being 80 μL/well; Then 10 μL of Z-VAD-FMK solution diluted with 1% FBS-containing RPMI 1640 medium (final concentration of 50 μM) or 10 μL of control solution (2.5% DMSO) was added to each well, with the total volume being 90 μL/well. The plate was incubated in a 5% CO2, 37° C. cell culture incubator for 1 hour.
After being cultured for 1 hour, 10 μL of human recombinant TNF-α protein diluted with 1% FBS-containing RPMI 1640 medium (final concentration of 0.1 μg/mL) or 10 μL/well control solution (1% FBS-containing RPMI 1640 medium) was added to each well. The plate was incubated in a 5% CO2, 37° C. cell culture incubator for 20 hours.
as §1, §2
The mean signal value of the wells of the mixed solution of recombinant human TNF-alpha protein (final concentration of 0.1 μg/mL) and Pan-Caspase inhibitor (final concentration of 50 μM) was used as the lower value, and the mean signal value of the wells without stimulation was used as the upper value. According to the signal value of each well, the inhibition rate of each concentration of every compound was calculated, and the IC50 value of compound was obtained by Model 205 in XL-Fit 5.3 software (ID Business Solutions Limited).
as §3

Broadly, the IC50 is the concentration at which inhibition is half-maximal. As to `CC(C)n1cncc(-c2ccc(C3(NC(=O)c4nnc(Cc5ccccc5)[nH]4)CC3)cc2)c1=O` [Compound 14], the half-maximal inhibitory concentration (IC50) came out at 181 nM in assay [1] and 3 nM in assay [2].

Values taken from US20240002388A1, “PYRIMIDINONE COMPOUNDS AND USES THEREOF” (HUTCHISON MEDIPHARMA LIMITED, priority 2020, published 2024).
